Results: patent publication US8420778B2, “Tripeptides and derivatives thereof for cosmetic application in order to improve skin structure” (DSM IP Assets B.V., priority 2003, dated 2013)

Tested on: Collagen Type I Synthesis in Fibroblast Cell Cultures
Test: Collagen stimulation by ELISA: stimulation of collagen type I synthesis in fibroblast cell cultures
Type: cell-based
Conditions: human skin fibroblasts, 72 h incubation
Procedure: Type I collagen of in-vitro cultured skin fibroblasts was detected with an ELISA (Enzyme-Linked Immunosorbent Assay). The increase in the collagen production of the cells was quantified in the presence of the peptidic actives by using this method. Human skin fibroblasts were isolated from foreskin and bred in culture medium. After 72 h of incubation with the corresponding peptides (actives) the quantitative determination was performed using an antibody specific for collagen I. [table] The 1st AB (MAB1340; Chemicon) and the 2nd AB (31430; Socochim S.A.) are diluted 1/500 with AB dilution solution. The fibroblasts are incubated until confluent at a density of approx. 5000 cells per well in 96 well-plates in culture medium (37° C./5% CO2) for 3 days. The medium is replaced with test medium with three different concentrations of test substance in triplicate. The following controls are tested on each plate: [table] After incubation of the plates for further 72 hours, the precipitated collagen I is detected and quantified according to the following protocol: • discard medium and wash with 200 μl/well of PBS • fix with 100 μl/well of methanol for 15 min at RT/shaker 600 rpm • discard methanol and block with 200 μl/well of milk solution for 30 min at RT/shaker 600 rpm • discard milk solution and incubate with 100 μl/well of the 1st AB dilution for 2 h at RT/shaker 600 rpm • discard 1st AB dilution and wash 3× with 200 μl/well of washing buffer • incubate with 100 μl/well of the 2nd AB dilution for 3 h at RT/shaker 600 rpm • discard 2nd AB dilution; wash 3× with 200 μl/well of washing buffer and 1× with 100 μl/well of PBS • add 100 μl/well of substrate solution for 20 min at RT/shaker 600 rpm • stop the reaction with 50 μl/well of H2SO4 (2M) and measure at 492 nm.

For “Elaidoyl-Lys-Phe-Lys-OH *2AcOH [Reference compound A, reference compound]”, the “% Stimulation” value (Conc. 0.01 µmol/L) was 23% and the “% Stimulation” value (Conc. 20.0 µmol/L) was 43%.
With “Elaidoyl-Lys-Thr-Lys-OH*2TFA [Example 4]” the “% Stimulation” value (Conc. 25 µmol/L) was 104%.
In the case of H-Lys-Thr-Lys-OH*3TFA [Example 5], the “% Stimulation” value (Conc. 50 µmol/L) is reported as 35%.
With H-Lys-Val-Lys-NH-Cetyl*3TFA [Example 7] the “% Stimulation” value (Conc. 100 µmol/L) was 61%.
H-Lys-Val-Lys-O-Octyl*3TFA [Example 8] was tested, and the “% Stimulation” value (Conc. 25 µmol/L) was 31%.
For Palm-Lys-Val-Lys-OH *2AcOH [No 4], the “% Stimulation” value (Conc. 50 µmol/L) was 48%.
